Source: ChEMBL document CHEMBL1275542, “Characterization of TolC efflux pump proteins from Pasteurella multocida” (2008)
Converted amounts (≈) assume the structure as drawn.

What was measured:
Assay type in all cases: functional
[1] = test system: Pasteurella multocida; assay: Antibacterial activity against Pasteurella multocida pm1980 after 24 hrs by broth dilution method; conditions: pm1980, 24 h
[2] = test system: Pasteurella multocida; assay: Antibacterial activity against TolC deficient Pasteurella multocida pm1980 after 24 hrs by broth dilution method; conditions: pm1980, 24 h
[3] = test system: Pasteurella multocida; assay: Antibacterial activity against Pasteurella multocida AL435 after 24 hrs by broth dilution method; conditions: AL435, 24 h
[4] = test system: Pasteurella multocida; assay: Antibacterial activity against TolC deficient Pasteurella multocida pm0527 after 24 hrs by broth dilution method; conditions: pm0527, 24 h
[5] = test system: Pasteurella multocida; assay: Ratio of MIC for Pasteurella multocida AL435 to MIC for TolC deficient Pasteurella multocida pm0527
[6] = test system: Pasteurella multocida; assay: Ratio of MIC for Pasteurella multocida AL435 to MIC for TolC deficient Pasteurella multocida pm1980
[7] = test system: Pasteurella multocida; assay: Antibacterial activity against Pasteurella multocida pm0527 after 24 hrs by broth dilution method; conditions: pm0527, 24 h

MIC [1] [µg/mL] | MIC [2] [µg/mL] | MIC [3] [µg/mL] | MIC [4] [µg/mL] | MIC [7] [µg/mL] | SMILES | Ratio [5] | Ratio [6]
30 (≈ 113 µM) | 30 (≈ 113 µM) | 30 (≈ 113 µM) | 0.234 (≈ 0.882 µM) | 15 (≈ 56.5 µM) | CN(C)c1ccc2cc3ccc(N(C)C)cc3nc2c1 [ACRIDINE ORANGE] | 128 | 1
1 (≈ 3.09 µM) | 1 (≈ 3.09 µM) | 1 (≈ 3.09 µM) | 0.5 (≈ 1.55 µM) | 1 (≈ 3.09 µM) | O=C(N[C@H](CO)[C@H](O)c1ccc([N+](=O)[O-])cc1)C(Cl)Cl [CHLORAMPHENICOL] | 2 | 1
625 (≈ 1590 µM) | 625 (≈ 1590 µM) | 625 (≈ 1590 µM) | 625 (≈ 1590 µM) | 312 (≈ 796 µM) | C[C@H](CCC(=O)O)[C@H]1CC[C@H]2[C@@H]3CC[C@@H]4C[C@H](O)CC[C@]4(C)[C@H]3C[C@H](O)[C@]12C [DEOXYCHOLIC ACID] | 1 | 1
4000 (≈ 25900 µM) | 2000 (≈ 13000 µM) | 4000 (≈ 25900 µM) | 2000 (≈ 13000 µM) | 2000 (≈ 13000 µM) | O[C@@H](CS)[C@@H](O)CS [DITHIOTHREITOL] | 2 | 2
1.88 (≈ 2.56 µM) | 1.88 (≈ 2.56 µM) | 3.8 (≈ 5.18 µM) | 0.47 (≈ 0.64 µM) | 1.88 (≈ 2.56 µM) | CC[C@H]1OC(=O)[C@H](C)[C@@H](O[C@H]2C[C@@](C)(OC)[C@@H](O)[C@H](C)O2)[C@H](C)[C@@H](O[C@@H]2O[C@H](C)C[C@H](N(C)C)[C@H]2O)[C@](C)(O)C[C@@H](C)C(=O)[C@H](C)[C@@H](O)[C@]1(C)O [ERYTHROMYCIN] | 8 | 2
12.5 | 12.5 | 12.5 | 3.12 | 6.25 | CN(C)c1ccc(C(=C2C=CC(=[N+](C)C)C=C2)c2ccc(N(C)C)cc2)cc1.[Cl-] [GENTIAN VIOLET] | 4 | 1

SMILES | MIC [1] [µg/mL] | MIC [2] [µg/mL] | MIC [3] [µg/mL] | MIC [4] [µg/mL] | MIC [7] [µg/mL] | Ratio [5] | Ratio [6]
CC(C)(O/N=C(\C(=O)N[C@@H]1C(=O)N2C(C(=O)[O-])=C(C[n+]3ccccc3)CS[C@H]12)c1csc(N)n1)C(=O)O [CEFTAZIDIME] | 31.2 (≈ 57.1 µM) | 31.2 (≈ 57.1 µM) | 250 (≈ 457 µM) | 15.6 (≈ 28.5 µM) | 7.8 (≈ 14.3 µM) | 16 | 8
C[C@@H]1C[C@@H]([C@H](O)CC2CC(=O)NC(=O)C2)C(=O)[C@@H](C)C1 [CYCLOHEXIMIDE] | 500 (≈ 1780 µM) | 500 (≈ 1780 µM) | 500 (≈ 1780 µM) | 250 (≈ 889 µM) | 500 (≈ 1780 µM) | 2 | 1
O=P1(N(CCCl)CCCl)NCCCO1 (configuration not stated) [CYCLOPHOSPHAMIDE ANHYDROUS] | 2000 (≈ 7660 µM) | 2000 (≈ 7660 µM) | 4000 (≈ 15300 µM) | 4000 (≈ 15300 µM) | 2000 (≈ 7660 µM) | 1 | 2
CCCCc1ccc(C(=O)O)nc1 [FUSARIC ACID] | 100 (≈ 558 µM) | 50 (≈ 279 µM) | 100 (≈ 558 µM) | 50 (≈ 279 µM) | 50 (≈ 279 µM) | 2 | 2
CC[n+]1c(-c2ccccc2)c2cc(N)ccc2c2ccc(N)cc21.[Br-] [HOMIDIUM BROMIDE] | 10 | 10 | 20 | 5 | 10 | 4 | 2
